{
  "source": "patent US9493524B2",
  "about": "“Methods for treatment of stroke or cerebrovascular accidents using an ETB receptor agonist” (MIDWESTERN UNIVERSITY, priority 2007, dated 2016)",
  "format_in_all_cases": "in vivo, Sprague-Dawley rats",
  "key": {"[1]": {"tested_on": "urethane anesthetized rat", "assay": "Arterial blood gas analysis", "settings": "IRL-1620 5 μg/kg, i.v., ET-1 0.75 μg/kg", "experimental": "(§1) Male Sprague-Dawley rats weighing 323±4 grams (g) were anesthetized with urethane (ethyl carbamate, Sigma Aldrich, St. Louis, Mo.) dissolved in isotonic saline (0.9% NaCl, Hospira, Inc., Lake Forest, Ill.). The rats were administered a dose of 0.15 g per 100 g body weight via intraperitoneal (i.p.) injection.\nBlood Gas Analysis: Arterial blood gases were monitored to determine the effects on pH, pCO2, and pO2. Blood was drawn from the arteriole cannula and analyzed using a GEM Premier 3000 unit (Instrument Laboratory, Lexington, Mass.).\n(§2) Blood pressure, heart rate, cerebral blood perfusion, and renal blood perfusion all were recorded for 2 hours following the final injection. Blood gases were analyzed prior to administration of any drugs, and at 60 and 120 min following administration of IRL-1620 or ET-1. At the end of each experiment, the animals were euthanized with an overdose of urethane i.v. In the figures, all data values are presented as mean±SEM. One-sample t-tests and one-way ANOVAs were used to test the differences within and between the groups. A P value of P<0.05 was considered significant."}, "[2]": {"tested_on": "urethane anesthetized rat", "assay": "Renal blood perfusion by Laser Doppler Flowmetry", "settings": "i.v.", "experimental": "as §1\nRenal Perfusion: The right kidney was dissected retroperitoneally. Renal perfusion was measured via a fiber optic probe (PF408) applied to the surface of the rat kidney. The probe was connected to a Periflux PF2b 4000 Laser Doppler Flowmetry unit (Perimed, Stockholm, Sweden).\n(§3) The rats were randomly selected for various studies. Following surgery the rats were allowed to stabilize for 30 minutes and a 15 minutes baseline recording of all parameters (blood pressure, heart rate, cerebral blood flow, and renal blood flow) was obtained prior to the administration of the pretreatment followed by IRL-1620 (Suc-[Glu 9, Ala 11,15], American Peptide Co, Inc., Sunnyville, Calif.) or ET-1 (Ala 1,3,11,15, RBI Sigma, Natick, Mass.). BQ-788, a selective endothelin B antagonist, is the sodium salt of N-cis-2,6-dimethylpiperidinocarbonyl-L-gamma-methylleucyl-D-1-methoxycarbonyl triptophanyl-DNIe (see Proc. Natl. Acad. Sci. USA, 91, pp. 4892-4896 (1994)) BMS is BMS 182, 874, which is a selective endothelin A antagonist having a structure\n(§4) Group 1: Animals (n=4) were pretreated with saline 15 minutes (min) prior to administration of IRL-1620 (5 μg/kg, i.v.).\n(§5) Group 2: Animals (n=4) were pretreated with BMS (5 mg/kg, i.v.) 15 min prior to administration of IRL-1620 (5 μg/kg, i.v.).\n(§6) Group 3: Animals (n=4) were pretreated with BMS (15 mg/kg, i.v.) 15 min prior to administration of IRL-1620 (5 μg/kg, i.v.).\n(§7) Group 4: Animals (n=4) were pretreated with BQ788 (1 μg/kg, i.v.) 15 min prior to administration of IRL-1620 (5 μg/kg, i.v.).\n(§8) Group 1: Animals (n=4) were pretreated with saline 15 min prior to administration of ET-1 (0.75 μg/kg, i.v.).\n(§9) Group 2: Animals (n=4) were pretreated with BMS (5 mg/kg, i.v.) 15 min prior to administration of ET-1 (0.75 μg/kg, i.v.).\n(§10) Group 3: Animals (n=4) were pretreated with BMS (15 mg/kg, i.v.) 15 min prior to administration of ET-1 (0.75 μg/kg, i.v.).\n(§11) Group 4: Animals (n=4) were pretreated with BQ788 (1 μg/kg, i.v.) 15 min prior to administration of ET-1 (0.75 μg/kg, i.v.).\nas §2"}, "[3]": {"tested_on": "urethane anesthetized rat", "assay": "Cerebral blood perfusion by Laser Doppler Flowmetry", "experimental": "as §1\nCerebral Perfusion: A burr hole was drilled into the rat skull about 2 millimeters (mm) to the left of midline. Cerebrovascular perfusion was measured via a fiber optic probe (PF407) applied to the surface of the rat brain. The probe was connected to a Periflux PF2b 4000 Laser Doppler Flowmetry unit (Perimed, Stockholm, Sweden).\nas §3, §4, §5, §6, §7, §8, §9, §10, §11, §2"}, "[4]": {"tested_on": "urethane anesthetized rat", "assay": "Blood pressure / mean arterial pressure recording", "settings": "i.v.; for decrease in mean arterial pressure: IRL-1620 5.0 μg/kg; for decrease in mean arterial pressure / increase in mean arterial pressure (subsequent hypertension): FIG. 11", "experimental": "as §1\n(§12) Blood Pressure and Heart Rate: The femoral vein and artery were cannulated. The arterial cannula was connected to a Gould P23 ID pressure transducer for recording the blood pressure on a Grass P7D polygraph through a 7PI preamplifier. The heart rate was recorded through a 7P4B Grass tachograph, triggered from blood pressure signals. Drugs were administered via the venous cannula.\nas §3, §4, §5, §6, §7, §8, §9, §10, §11, §2"}, "[5]": {"tested_on": "urethane anesthetized rat", "assay": "Heart rate recording", "settings": "IRL-1620 5 μg/kg; for heart rate: mean±SEM, in bpm (unit assumed)", "experimental": "as §1, §12, §3, §4, §5, §6\nGroup 4: Animals (n=4) were pretreated with BQ788 (1 μg/kg, i.v.) 15 min prior to administration of IRL-1620 (5 μg/kg, i.v.). […]\nas §2"}, "[6]": {"settings": "time 0 min (prior to any drugs)"}},
  "data": [
    {"compound": "ET-1: endothelin-1 (ET-1), a 21-amino acid peptide (ASASSLMDKEAVYFAHLDIIW)", "values": [
      {"measurement": "effect on arterial blood gases (text to Table 2)", "setting": "[1]", "value": "Neither IRL-1620 nor ET-1 significantly affected blood gases"},
      {"measurement": "arterial blood pCO2", "setting": "[1]; [6]", "value": "34 ± 3"},
      {"measurement": "arterial blood pH", "setting": "[1]; [6]", "value": "7.32 ± 0.01"},
      {"measurement": "arterial blood pO2", "setting": "[1]; [6]", "value": "118 ± 4"},
      {"measurement": "arterial blood pCO2", "setting": "[1]; time 60 min", "value": "40 ± 4"},
      {"measurement": "arterial blood pH", "setting": "[1]; time 60 min", "value": "7.29 ± 0.01"},
      {"measurement": "arterial blood pO2", "setting": "[1]; time 60 min", "value": "110 ± 2"},
      {"measurement": "arterial blood pCO2", "setting": "[1]; time 120 min", "value": "38 ± 4"},
      {"measurement": "arterial blood pH", "setting": "[1]; time 120 min", "value": "7.27 ± 0.01"},
      {"measurement": "arterial blood pO2", "setting": "[1]; time 120 min", "value": "116 ± 5"},
      {"measurement": "persistence of the decrease in renal blood flow", "setting": "[2]; IRL-1620 5 μg/kg, ET-1 0.75 μg/kg, FIG. 8", "value": "approximately 15 minutes"},
      {"measurement": "decrease in renal blood flow", "setting": "[2]; at 1 minute, IRL-1620 5 μg/kg, ET-1 0.75 μg/kg, FIG. 8", "value": 40.27, "unit": "%"},
      {"measurement": "decrease in renal blood flow", "setting": "[2]; at 5 minutes, IRL-1620 5 μg/kg, ET-1 0.75 μg/kg, FIG. 8", "value": 50.10, "unit": "%"},
      {"measurement": "decrease in renal blood flow", "setting": "[2]; at 10 minutes, IRL-1620 5 μg/kg, ET-1 0.75 μg/kg, FIG. 8", "value": 26.33, "unit": "%"},
      {"measurement": "change in cerebral blood flow", "setting": "[3]; ET-1 0.75 μg/kg, i.v., FIG. 5", "value": "no significant change"},
      {"measurement": "decrease in mean arterial pressure", "setting": "[4]; at 0.2 minute, ET-1 0.75 μg/kg", "value": 43.16, "unit": "%"},
      {"measurement": "decrease in mean arterial pressure", "setting": "[4]; at 0.5 minute, ET-1 0.75 μg/kg", "value": 37.80, "unit": "%"},
      {"measurement": "decrease in mean arterial pressure", "setting": "[4]; at 1 minute, ET-1 0.75 μg/kg", "value": 19.30, "unit": "%"},
      {"measurement": "increase in mean arterial pressure (subsequent hypertension)", "setting": "[4]; at 5 minutes, ET-1 0.75 μg/kg", "value": 12.72, "unit": "%"},
      {"measurement": "increase in mean arterial pressure (subsequent hypertension)", "setting": "[4]; at 10 minutes, ET-1 0.75 μg/kg", "value": 25.56, "unit": "%"},
      {"measurement": "increase in mean arterial pressure (subsequent hypertension)", "setting": "[4]; at 15 minutes, ET-1 0.75 μg/kg", "value": 28.49, "unit": "%"},
      {"measurement": "effect on heart rate (Table 1)", "setting": "[5]; i.v. after saline, ET-1 with or without pretreatment", "value": "No significant alteration"}
    ]},
    {"compound": "Cc1noc(NS(=O)(=O)c2cccc3c(N(C)C)cccc23)c1C", "note": "[BMS]", "values": [
      {"measurement": "effect of pretreatment on the effect of ET-1 on renal blood flow", "setting": "[2]; BMS 5 and 15 mg/kg, BQ788 1 μg/kg, ET-1 0.75 μg/kg, FIG. 10", "value": "No pretreatment significantly altered"},
      {"measurement": "effect of pretreatment on the effect of IRL-1620 on renal blood flow", "setting": "[2]; BMS 5 and 15 mg/kg, BQ788 1 μg/kg, IRL-1620 5 μg/kg, FIG. 9", "value": "sustained decrease in renal blood flow up to 120 minutes"},
      {"measurement": "effect of pretreatment on the effect of ET-1 on cerebral blood flow", "setting": "[3]; BMS 5 and 15 mg/kg, i.v., BQ788 1 μg/kg, ET-1 0.75 μg/kg, FIG. 7", "value": "no significant change"},
      {"measurement": "transient increase in cerebral blood flow", "setting": "[3]; high dose of BMS (15 mg/kg, i.v.) pretreatment, 1 minute after administration of IRL-1620 5 μg/kg, FIG. 6", "value": 37.99, "unit": "%"},
      {"measurement": "effect of pretreatment on the effect of ET-1 on mean arterial pressure", "setting": "[4]; BMS 5 and 15 mg/kg, BQ788 1 μg/kg, ET-1 0.75 μg/kg, FIG. 13", "value": "failed to alter"},
      {"measurement": "effect of pretreatment on the effect of IRL-1620 on mean arterial pressure", "setting": "[4]; BMS 5 and 15 mg/kg, BQ788 1 μg/kg, IRL-1620 5 μg/kg, FIG. 12", "value": "transient hypotension similar to that observed in animals pretreated with saline"},
      {"measurement": "heart rate", "setting": "[5]; 5 mg/kg BMS pretreatment, i.v., time 0 min", "value": "339 ± 6"},
      {"measurement": "heart rate", "setting": "[5]; 5 mg/kg BMS pretreatment, i.v., time 1 min", "value": "365 ± 4"},
      {"measurement": "heart rate", "setting": "[5]; 5 mg/kg BMS pretreatment, i.v., time 5 min", "value": "357 ± 13"},
      {"measurement": "heart rate", "setting": "[5]; 5 mg/kg BMS pretreatment, i.v., time 10 min", "value": "345 ± 14"},
      {"measurement": "heart rate", "setting": "[5]; 5 mg/kg BMS pretreatment, i.v., time 15 min", "value": "345 ± 14"},
      {"measurement": "heart rate", "setting": "[5]; 5 mg/kg BMS pretreatment, i.v., time 30 min", "value": "356 ± 12"},
      {"measurement": "heart rate", "setting": "[5]; 5 mg/kg BMS pretreatment, i.v., time 45 min", "value": "367 ± 14"},
      {"measurement": "heart rate", "setting": "[5]; 5 mg/kg BMS pretreatment, i.v., time 60 min", "value": "370 ± 14"},
      {"measurement": "heart rate", "setting": "[5]; 5 mg/kg BMS pretreatment, i.v., time 90 min", "value": "350 ± 9"},
      {"measurement": "heart rate", "setting": "[5]; 5 mg/kg BMS pretreatment, i.v., time 120 min", "value": "327 ± 12"},
      {"measurement": "heart rate", "setting": "[5]; 15 mg/kg BMS pretreatment, i.v., time 0 min", "value": "405 ± 11"},
      {"measurement": "heart rate", "setting": "[5]; 15 mg/kg BMS pretreatment, i.v., time 1 min", "value": "425 ± 11"},
      {"measurement": "heart rate", "setting": "[5]; 15 mg/kg BMS pretreatment, i.v., time 5 min", "value": "382 ± 13"},
      {"measurement": "heart rate", "setting": "[5]; 15 mg/kg BMS pretreatment, i.v., time 10 min", "value": "380 ± 11"},
      {"measurement": "heart rate", "setting": "[5]; 15 mg/kg BMS pretreatment, i.v., time 15 min", "value": "384 ± 11"},
      {"measurement": "heart rate", "setting": "[5]; 15 mg/kg BMS pretreatment, i.v., time 30 min", "value": "387 ± 17"},
      {"measurement": "heart rate", "setting": "[5]; 15 mg/kg BMS pretreatment, i.v., time 45 min", "value": "387 ± 21"},
      {"measurement": "heart rate", "setting": "[5]; 15 mg/kg BMS pretreatment, i.v., time 60 min", "value": "395 ± 19"},
      {"measurement": "heart rate", "setting": "[5]; 15 mg/kg BMS pretreatment, i.v., time 90 min", "value": "393 ± 21"},
      {"measurement": "heart rate", "setting": "[5]; 15 mg/kg BMS pretreatment, i.v., time 120 min", "value": "386 ± 18"},
      {"measurement": "effect of pretreatment on the effect of IRL-1620 on heart rate (Table 1)", "setting": "[5]; BMS 5 and 15 mg/kg, BQ788, i.v.", "value": "increase"}
    ]}
  ]
}
